What was measured:
Format in all cases: functional
Mamestra brassicae [1] = assay: Insecticidal activity against last-instar Mamestra brassicae larvae assessed as normal pupae at 50 ug/larvae topical application (reference value: 90%)
Mamestra brassicae [2] = assay: Insecticidal activity against last-instar Mamestra brassicae larvae assessed as larval-pupal intermediate at 50 ug/larvae topical application (reference value: 0%)
Mamestra brassicae [3] = assay: Insecticidal activity against last-instar Mamestra brassicae larvae assessed as larval-pupal intermediate injected at 10 ug/larvae (reference value: 0%)

OCC1=C[C@H](N[C@H]2C[C@H](CO)[C@@H](O)[C@H](O)[C@H]2O)[C@H](O)[C@@H](O)[C@@H]1O [VALIDOXYLAMINE A]
Activity (Mamestra brassicae [1]): 60%
Activity (Mamestra brassicae [2]): 0%
Activity (Mamestra brassicae [3]): 80%

Reference: ChEMBL document CHEMBL3044761, “Lethal Activity of a Trehalase Inhibitor, Validoxylamine A, against Mamestra brassicae and Spodoptera litura” (J Pestic Sci, 1994)
